Laboratory results: patent US20250250265A1, “BENZOTHIAZOLE-PHENYLSULFONYL-PIPERIDINE ANALOGS AS ACTIVATORS OF NACYLPHOSPHATIDYLETHANOLAMINE HYDROLYZING PHOSPHOLIPASE D” (priority 2022, published 2025)
Entries after “also recorded” stand apart in the source; their conditions may differ.

Legend:
[1] = target: T1, soluble epoxide hydrolase (sEH) (Homo sapiens, UniProt P34913); test: sEH activity assay (Cayman Chemicals); assay type: biochemical; settings: for Remaining sEH Activity (33 μM): Table 3; for inhibition of sEH activity: graded concentrations; for inhibition at 33 µM: 33 μM compound, compared to vehicle (0%)
T1 construct: purchased Cayman Chemicals
T1 sequence (P34913 1-555): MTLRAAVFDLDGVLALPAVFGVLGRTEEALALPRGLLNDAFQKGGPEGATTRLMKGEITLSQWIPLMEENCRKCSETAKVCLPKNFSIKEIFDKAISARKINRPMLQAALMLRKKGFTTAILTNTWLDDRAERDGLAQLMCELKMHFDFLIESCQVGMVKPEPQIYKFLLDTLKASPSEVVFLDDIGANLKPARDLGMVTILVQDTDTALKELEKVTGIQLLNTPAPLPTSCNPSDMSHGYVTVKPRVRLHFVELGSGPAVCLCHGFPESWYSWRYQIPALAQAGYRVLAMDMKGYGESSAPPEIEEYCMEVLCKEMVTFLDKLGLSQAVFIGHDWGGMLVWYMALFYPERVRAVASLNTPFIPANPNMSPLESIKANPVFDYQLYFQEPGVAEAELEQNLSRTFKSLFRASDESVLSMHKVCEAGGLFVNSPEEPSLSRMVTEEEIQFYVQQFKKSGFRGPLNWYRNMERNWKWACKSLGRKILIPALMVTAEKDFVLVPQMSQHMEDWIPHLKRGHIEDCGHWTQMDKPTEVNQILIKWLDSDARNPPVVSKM
Description: (§1) Concentration response curves were plotted for VU534 for the enzymes fatty acid amide hydrolase (FAAH) and soluble epoxide hydrolase (sEH).
(§2) The fluorescence interference assay was performed using the same method as the HTS assay, but with BODIPY-FL C5 (Thermo Fisher Scientific) used in place of PED-A1. sEH and FAAH activity assays were performed according to the manufacturer's specifications (Cayman Chemicals).

[2] = test system: RAW264.7 mouse macrophages; test: Cytotoxicity (MTT) in RAW264.7 macrophages; assay type: cell-based; settings: for % viability RAW 264.7 (33 μM): Table 3; for cytotoxicity in RAW264.7 cells: up to / at 30 μM; for 33 μM Mϕ % Viability: Table 2, 33 μM compound
Description: Cytotoxicity was measured using MTT as previously described except that the studies used 96-well plates with 100 μL of 0.3 mg/mL MTT solution was added after 24 h of treatment and then replaced after 3 h with 0.1 M HCl in isopropanol. See Aggarwal et al., J. Biol. Chem. 295(21): 7289-7300 (2020). Viability was expressed as percent absorbance at 560 nm relative to vehicle controls.

[3] = target: T2, Fatty Acid Amide Hydrolase (FAAH) (Homo sapiens, UniProt O00519); test: FAAH activity assay (Cayman Chemicals); assay type: biochemical; settings: for Remaining FAAH Activity (33 μM): Table 3; for inhibition of FAAH activity: graded concentrations up to 33 μM; for inhibition at 33 µM: 33 μM compound, compared to vehicle (0%)
T2 construct: purchased Cayman Chemicals
T2 sequence (O00519 1-579): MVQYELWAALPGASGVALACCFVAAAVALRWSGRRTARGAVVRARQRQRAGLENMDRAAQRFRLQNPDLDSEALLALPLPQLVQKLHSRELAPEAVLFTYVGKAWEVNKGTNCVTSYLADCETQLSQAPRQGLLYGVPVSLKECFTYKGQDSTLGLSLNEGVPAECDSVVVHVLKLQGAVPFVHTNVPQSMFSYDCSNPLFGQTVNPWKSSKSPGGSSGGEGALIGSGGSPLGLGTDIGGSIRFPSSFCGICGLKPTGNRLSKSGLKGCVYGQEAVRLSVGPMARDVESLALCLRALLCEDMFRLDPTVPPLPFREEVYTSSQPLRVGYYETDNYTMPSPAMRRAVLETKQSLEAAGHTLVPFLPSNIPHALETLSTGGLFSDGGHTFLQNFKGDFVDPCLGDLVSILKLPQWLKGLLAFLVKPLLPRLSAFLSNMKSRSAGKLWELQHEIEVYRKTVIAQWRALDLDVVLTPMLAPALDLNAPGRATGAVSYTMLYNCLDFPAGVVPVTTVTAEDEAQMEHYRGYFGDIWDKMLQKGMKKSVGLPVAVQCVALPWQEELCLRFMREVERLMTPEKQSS
Description: as §1, §2

[4] = target: T3, NAPE-PLD activity of RAW264.7 macrophages (Mus musculus, UniProt Q8BH82); test: Cell-based NAPE-PLD activity in RAW264.7 macrophages (PED-A1 with orlistat); settings: for Emax, Nape-pld activity in RAW264.7 cells: FIG. 17A, PED-A1; for effect on NAPE-PLD activity in RAW264.7 cells: graded concentrations (FIG. 17A); for 10 μM Mϕ % NAPE-PLD activity: Table 2, 10 μM compound, vehicle = 100%; for In-cell NAPE-PLD activity in RAW 264.7 (10 μM) with PED-A1 or flame-NAPE as substrate: Table 3
T3 construct: endogenous in cells; host or cells: RAW264.7
T3 sequence (Q8BH82 1-396): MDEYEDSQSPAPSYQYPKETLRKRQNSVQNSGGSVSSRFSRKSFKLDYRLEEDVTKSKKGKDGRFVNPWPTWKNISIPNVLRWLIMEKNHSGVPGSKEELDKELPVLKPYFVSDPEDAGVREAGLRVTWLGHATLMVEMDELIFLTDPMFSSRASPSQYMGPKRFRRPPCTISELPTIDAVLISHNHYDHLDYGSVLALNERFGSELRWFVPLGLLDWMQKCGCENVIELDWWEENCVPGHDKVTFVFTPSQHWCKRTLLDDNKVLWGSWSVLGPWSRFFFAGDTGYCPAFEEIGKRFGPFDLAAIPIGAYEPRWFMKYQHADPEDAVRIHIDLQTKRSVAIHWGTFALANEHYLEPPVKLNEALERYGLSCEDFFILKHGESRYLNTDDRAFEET
Description: NAPE-PLD activity was measured in cells as previously described, except that FluoroBrite DMEM (Gibco A1896701) was used as media. See Zarrow et al., J. Lipid Res. 63(1): 100156 (2022). For RAW264.7 assays, PED-A1 (3.6 μM final) was used as the substrate with 10 μM orlistat added to inhibit PLA1 activity, while for HepG2 cells, flame-NAPE was used (with no orlistat added).

Remaining sEH Activity (33 μM) [1] | Remaining FAAH Activity (33 μM) [3] | inhibition at 33 µM [1] | 10 μM Mϕ % NAPE-PLD activity [4] | inhibition at 33 µM [3] | In-cell NAPE-PLD activity in RAW 264.7 (10 μM) with PED-A1 or flame-NAPE as substrate [4] | Compound | % viability RAW 264.7 (33 μM) [2] | inhibition of sEH activity [1] | cytotoxicity in RAW264.7 cells [2] | Emax, Nape-pld activity in RAW264.7 cells [4] | effect on NAPE-PLD activity in RAW264.7 cells [4] | inhibition of FAAH activity [3] | 33 μM Mϕ % Viability [2]
59% | 79% |  |  |  |  | O=C(Nc1nc2ccccc2s1)C1CCN(S(=O)(=O)c2cccnc2)CC1 [VU203] | 57% |  |  |  |  |  | 
 |  | 50% | 115% | < 15% |  | Cc1cccc2sc(NC(=O)C3CCN(S(=O)(=O)c4cccnc4)CC3)nc12 [MRJ-058C] |  |  |  |  |  |  | >85%
48% | 86% |  |  |  | 114% | Cc1cccc2sc(NC(=O)C3CCN(S(=O)(=O)c4cccnc4)CC3)nc12 [VU211] | 88% |  |  |  |  |  | 
63% | 97% |  |  |  | 102% | Cn1cc(S(=O)(=O)N2CCC(C(=O)Nc3nc4ccccc4s3)CC2)cn1 [VU227] | 106% |  |  |  |  |  | 
60% | 89% | 40% | 105% | < 15% | 107% | Cc1ccc2nc(NC(=O)C3CCN(S(=O)(=O)c4ccc(F)cc4)CC3)sc2c1 [VU486] | 89% |  |  |  |  |  | >85%
62% | 88% |  |  |  | 136% | Cc1cccc2sc(NC(=O)C3CCN(S(=O)(=O)c4ccc(F)c(Cl)c4)CC3)nc12 [VU209] | 88% |  |  |  |  |  | 
117% | 90% |  |  |  |  | O=C(Nc1nc2ccccc2s1)C1CCN(S(=O)(=O)c2ccc(F)c(Cl)c2)CC1 [VU233] | 111% | neither VU533 nor VU233 significantly inhibited seH | no cytotoxicity |  | no significant effect; also recorded: not significant | only weak inhibition | 

The remaining lines, values behind:

Compound | Remaining sEH Activity (33 μM) [1] | Remaining FAAH Activity (33 μM) [3] | inhibition at 33 µM [1] | 10 μM Mϕ % NAPE-PLD activity [4] | inhibition at 33 µM [3] | In-cell NAPE-PLD activity in RAW 264.7 (10 μM) with PED-A1 or flame-NAPE as substrate [4] | % viability RAW 264.7 (33 μM) [2] | inhibition of sEH activity [1] | cytotoxicity in RAW264.7 cells [2] | Emax, Nape-pld activity in RAW264.7 cells [4] | effect on NAPE-PLD activity in RAW264.7 cells [4] | inhibition of FAAH activity [3] | 33 μM Mϕ % Viability [2]
Cc1ccc(C)c2sc(NC(=O)C3CCN(S(=O)(=O)c4ccc(F)cc4)CC3)nc12 [VU533] |  |  |  |  |  |  |  | neither VU533 nor VU233 significantly inhibited seH | no cytotoxicity | 2.2 fold | significantly increased NAPE-PLD activity | only weak inhibition | 
Cc1cc(C)c2sc(NC(=O)C3CCN(S(=O)(=O)c4ccc(F)cc4)CC3)nc2c1 [VU534, N-(5,7-Dimethylbenzo[d]thiazol-2-yl)-1-((4-fluorophenyl)sulfonyl)piperidine-4-carboxamide] | 27% | 86% | 75% | 140% | < 15% | 139% | 89% | inhibition of sEH; also recorded: modest inhibition; also recorded: inhibits | minimal cytotoxicity | 1.6 fold | significantly increased NAPE-PLD activity | no inhibition of FAAH; also recorded: only weak inhibition; also recorded: does not inhibit | >85%
Cc1ccc2sc(NC(=O)C3CCN(S(=O)(=O)c4ccc(F)cc4)CC3)nc2c1C [VU517] | 29% | 90% | 70% | 125% | < 15% | 123% | 83% |  |  |  |  |  | 80%
Cc1ccc(S(=O)(=O)N2CCC(C(=O)Nc3nc4c(C)cc(C)cc4s3)CC2)cc1 [VU575] | 55% | 90% | 45% | 105% | < 15% | 107% | 85% |  |  |  |  |  | >85%
Cc1cccc2sc(NC(=O)C3CCN(S(=O)(=O)c4ccc(F)c(Cl)c4)CC3)nc12 [MRJ-058B] |  |  | 50% | 135% | < 15% |  |  |  |  |  |  |  | >85%
Cc1cccc2sc(NC(=O)C3CCN(S(=O)(=O)c4cnn(C)c4)CC3)nc12 [MRJ-058D] |  |  | 20% | 100% | < 15% |  |  |  |  |  |  |  | >85%
Cc1cc2nc(NC(=O)C3CCN(S(=O)(=O)c4ccc(F)cc4)CC3)sc2cc1C [VU536] | 49% | 75% | 50% | 155% | 25% | 155% | 114% |  |  |  |  |  | >85%
Cc1cccc2sc(NC(=O)C3CCN(S(=O)(=O)c4cnn(C)c4)CC3)nc12 [VU210] | 81% | 89% |  |  |  | 98% | 86% |  |  |  |  |  | 
